Data on two compounds can be found in patent publication US20100303786A1, “Stabilisation of Liquid-Formulated Factor VII(A) Polypeptides by Aldehyde-Containing Compounds” (Novo Nordisk Health Care AG, priority 2007, published 2010).

Entries after “also recorded” stand apart in the source; their conditions may differ.

Data set [1] addresses T1, 40K-PEG-rFVIIa (Homo sapiens, UniProt P08709).
T1 construct: has been cleaved at the peptide bond preceding position 153
T1 sequence (P08709 213-466 limits assumed): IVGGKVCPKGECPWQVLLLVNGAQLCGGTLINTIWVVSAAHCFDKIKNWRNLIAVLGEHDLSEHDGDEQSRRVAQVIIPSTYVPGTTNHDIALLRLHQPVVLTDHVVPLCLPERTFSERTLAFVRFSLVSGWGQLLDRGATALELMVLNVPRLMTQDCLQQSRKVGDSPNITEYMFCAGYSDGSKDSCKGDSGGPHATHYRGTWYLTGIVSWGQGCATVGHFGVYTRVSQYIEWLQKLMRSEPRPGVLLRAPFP
T1 sequence (P08709 61-212 limits assumed): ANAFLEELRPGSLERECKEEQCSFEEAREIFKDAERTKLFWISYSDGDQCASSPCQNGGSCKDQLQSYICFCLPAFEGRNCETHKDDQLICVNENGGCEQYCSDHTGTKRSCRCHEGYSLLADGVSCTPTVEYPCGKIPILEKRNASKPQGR
Nature of the data set: Stability of liquid 40K-PEG-rFVIIa formulations: heavy chain fragmentation (Assay 5). The format is physicochemical. The conditions noted are these: 2 months at 5° C.; 28 mM benzaldehyde or 180 mM 5-formyl-4-methylimidazole. Here is the method:
For the purpose of determining the content of heavy chain fragmentation products of 40K-PEG-rFVIIa, a reverse phase HPLC was run on a ACE 3 μm C4, 300 Å, 4.6×100 mm column (Advanced Chromatography Technologies, part. no. ACE-213-1046). Column temperature: 60° C. A-buffer: 0.05% v/v trifluoracetic acid. B-buffer: 0.06% v/v trifluoracetic acid, 80% v/v acetonitrile. Denaturation buffer: 6M Guanidine hydrochloride, 50 mM Tris, 5 mM calcium chloride, pH 7,5. Samples are prepared from 50 μl analysis sample+50 μl denaturation buffer+5 μl DTT+1 μl acetic acid and incubated at 60° C. for 15 min.
The column was eluted with a linear gradient from 35 to 80% B in 30 minutes. Flow rate: 0.7 mL/min. Detection: 214 nm. Load: 25 μg FVIIa. The initial content of heavy chain degradation products is subtracted from the measured content of heavy chain degradation product, i.e. the initial content of heavy chain degradation products is set to 0%. The content of heavy chain degradation products at the time x is then calculated as: […]
wherein HCDP(x) is the measured content of heavy chain degradation products at the time x, HCDP(0) is the measured initial content of heavy chain degradation products, and FVII(x) is the content of the intact Factor VII polypeptide at the time x.
A stability experiment with liquid formulations containing 40K-PEG-rFVIIa was performed. […]

For data set [2], the target named is T1, 40K-PEG-rFVIIa. The data set is described as follows: Stability of liquid 40K-PEG-rFVIIa formulations: clot activity (one-stage coagulation assay, Assay 3). Type of data set: biochemical. As to conditions: 2 months at 5° C.; 28 mM benzaldehyde or 180 mM 5-formyl-4-methylimidazole. Here is the method:
The clot assay is used to assess the ability of Factor VIIa polypeptides to make blood clot. For this purpose, the sample to be tested is diluted in 50 mM PIPES-buffer (pH 7.5), 0.1% BSA and 40 μl is incubated with 40 μl of Factor VII deficient plasma and 80 μl of human recombinant tissue factor containing 10 mM Ca2+ and synthetic phospholipids. Coagulation times (clotting times) are measured and compared to a standard curve using a reference standard in a parallel line assay.
A stability experiment with liquid formulations containing 40K-PEG-rFVIIa was performed. The formulations had the following compositions: […]
The PEG moiety is excluded in the specification of 40K-PEG-rFVIIa concentration. pH was 6.5 in all samples. At 0, ½, 1 and 2 months, 70 μl aliquots were taken from the stability sample, diluted to 1 mg/ml 40K-PEG-rFVIIa and assayed for clot activity (Δactivity), FVIIa polypeptide fragmentation (Δfragment), dimer/2-PEG, and high molecular weight protein.

Another data set concerns the target T2, FVIIa (Homo sapiens, UniProt P08709).
T2 construct: has been cleaved at the peptide bond preceding position 153
T2 sequence (P08709 213-466 limits assumed): T1 sequence (P08709 213-466 limits assumed)
T2 sequence (P08709 61-212 limits assumed): T1 sequence (P08709 61-212 limits assumed)
Nature of the data set: Thermo-fluorescence (thermal shift) measurement of FVIIa denaturation temperature in the presence of aldehydes. Type of data set: physicochemical. The conditions noted are these: 25 mM imidazole, pH 6.5, 20 mM CaCl2, 60 mg/ml sucrose; various aldehyde concentrations; FIG. 2. Here is the method:
The effect of aldehydes on Factor VIIa amidolytic activity is shown in an in vitro hydrolysis assay (20 mM imidazole, pH 6.5, 20 mM CaCl2), the results of which are illustrated in FIG. 1. A clear inhibition of amidolytic activity is observed. However, the apparent inhibition could be due to FVIIa denaturation. In order to address this issue, the denaturation temperature of FVIIa was measured in the presence of aldehydes. The measurement was performed by thermo-fluorescence, essentially as the thermal shift assay described by Lo et al., Analytical Biochemistry 332, 153-159 (2004). The denaturation temperature was determined as the point of maximum slope of the fluorescence intensity curve. The denaturation temperature is shown in FIG. 2 at various concentrations of aldehydes (25 mM imidazole, pH 6.5, 20 mM CaCl2, 60 mg/ml sucrose). […] Therefore, the inhibitory activity of these three compounds may be caused by denaturation.

Another data set has as its target T3, rFVIIa (Homo sapiens, UniProt P08709).
T3 construct: has been cleaved at the peptide bond preceding position 153
T3 sequence (P08709 213-466 limits assumed): T1 sequence (P08709 213-466 limits assumed)
T3 sequence (P08709 61-212 limits assumed): T1 sequence (P08709 61-212 limits assumed)
The data set is described as follows: Stability experiment: heavy chain fragmentation of rFVIIa after 4 weeks in benzaldehyde solutions. The format is physicochemical. As to conditions: 4 weeks at 5° C.; 12.5 mg/ml rFVIIa, pH 6.5; 0, 10, 20, 40 and 80 mM benzaldehyde; FIG. 5. Here is the method: In the below working examples the content of heavy chain fragmentation products of Factor VIIa is determined by RP-HPLC as described in the following:
Reverse phase HPLC was run on a proprietary 4.5×250 mm butyl-bonded silica column with a particle size of 5 μm and pore size 300 Å. Column temperature: 70° C. A-buffer: 0.1% v/v trifluoracetic acid. B-buffer: 0.09% v/v trifluoracetic acid, 80% v/v acetonitrile. The column was eluted with a linear gradient from X to (X+13) % B in 30 minutes. X was adjusted so that FVIIa elutes with a retention time of approximately 26 minutes. Flow rate: 1.0 mL/min. Detection: 214 nm. Load: 25 μg FVIIa.
A stability experiment with liquid formulations containing FVIIa was performed. Conditions in all samples were 10 mM His, pH 6.5, 20 mM CaCl2, 6% sucrose, 0.5 mg/ml methionine, 12.5 mg/ml rFVIIa. 50 μl solutions with 0, 10, 20, 40 and 80 mM benzaldehyde in 500 μl cryotubes were prepared, incubated at 5° C. for 4 weeks and then frozen to −80° C. In addition, a reference sample without benzaldehyde was prepared and immediately frozen to −80° C. For analysis, all samples were thawed, diluted to 1 ml volume in 10 mM histidine, pH 5.5, and analysed for heavy chain fragmentation.

`Cc1nc[nH]c1C=O` [5-formyl-4-methylimidazol, 5-formyl-4-methylimidazole]: the “Fragmentation compared to the reference formulation” value on 40K-PEG-rFVIIa [1] is listed as “very large reduction in fragmentation”. Also, the “Loss of activity / FVIIa polypeptide stability compared to the reference formulation” value at 40K-PEG-rFVIIa [2] is recorded as “very large improvement in FVIIa polypeptide stability”.
Take `O=Cc1ccccc1` [benzaldehyde]: the “Effect on Factor VIIa denaturation temperature (melting point)” value at FVIIa is on record as “drops significantly at high aldehyde concentration; also recorded: affect the denaturation temperature at high concentrations”. Moreover, the “Fragmentation as a percentage of the total Factor VIIa content (% fragmented)” value on rFVIIa was “decreases as the concentration of benzaldehyde is increased; also recorded: much lower in the presence of benzaldehyde, particularly in concentrations above 10 mM”. Moreover, the “Fragmentation compared to the reference formulation” value at 40K-PEG-rFVIIa [1] is “small reduction in fragmentation”. Besides, on 40K-PEG-rFVIIa [2], the “Loss of activity / FVIIa polypeptide stability compared to the reference formulation” value is “small reduction in fragmentation and loss of activity”.
